The values that follow come from the supplement of paper PMC10307832.

Experiment in all cases: relative viability (nuclei count vs DMSO), 5 days (fraction); higher = more cells survive
Compound in assay [1]: O=C(/C=C/c1cccnc1)NCCCCC1CCN(C(=O)c2ccccc2)CC1 [Daporinad] + N=C(N)NC(=N)NCCc1ccccc1 [Phenformin] (partner 250 µM)
In outline: (§1)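 Relative viability equals treated-well nuclei counts divided by vehicle-well nuclei counts. Counts came from 4× images of lung cancer cell lines grown in 1536-well plates for 5 days after pin-tool dosing on the day after seeding. Dosing used one drug alone or a fixed anchor-drug dose plus five library-drug doses (not always all listed) in √10 steps, and values are medians of duplicate plates.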

Compound in assay [2]: O=C(/C=C/c1cccnc1)NCCCCC1CCN(C(=O)c2ccccc2)CC1 [Daporinad] + O=C(CCCCCCC(=O)Nc1ccccc1)NO [Vorinostat] (partner 1 µM)
In outline:
as §1

Compound in assay [3]: O=C(/C=C/c1cccnc1)NCCCCC1CCN(C(=O)c2ccccc2)CC1 [Daporinad] + CC1(C)CCC(c2ccc(Cl)cc2)=C(CN2CCN(c3ccc(C(=O)NS(=O)(=O)c4ccc(N[C@H](CCN5CCOCC5)CSc5ccccc5)c(S(=O)(=O)C(F)(F)F)c4)cc3)CC2)C1 [Navitoclax] (partner 0.5 µM)
In short, it runs like this: as §1

Compound in assay [4]: COc1cc(Nc2ncc(F)c(Nc3ccc4c(n3)NC(=O)C(C)(C)O4)n2)cc(OC)c1OC [R406] + CC(=O)c1c(C)c2cnc(Nc3ccc(N4CCNCC4)cn3)nc2n(C2CCCC2)c1=O [Palbociclib] (partner 0.5 µM)
In short, it runs like this: as §1

As to UMC-11, the relative viability in assay [1] (first compound 0.0005 µM) stood at 0.266; in assay [1] (first compound 0.001581 µM), 0.348; in assay [1] (first compound 0.005 µM), 0.353; in assay [1] (first compound 0.01581 µM), 0.367; in assay [2] (first compound 0.0005 µM), 0.319; in assay [2] (first compound 0.001581 µM), 0.384. The relative viability worked out at 0.426 in assay [2] (first compound 0.005 µM); 0.413 in assay [2] (first compound 0.01581 µM); 0.335 in assay [3] (first compound 0.0005 µM); 0.33 in assay [3] (first compound 0.001581 µM); 0.377 in assay [3] (first compound 0.005 µM); 0.288 in assay [3] (first compound 0.01581 µM). Also, the relative viability in assay [4] (first compound 0.08 µM) came to 0.314; in assay [4] (first compound 0.253 µM), 0.339; in assay [4] (first compound 0.8 µM), 0.35; in assay [4] (first compound 2.53 µM), 0.312; in assay [4] (first compound 8 µM), 0.239.
